Legend:
Assay in all cases: relative viability (nuclei count vs DMSO), 5 days (fraction); higher = more cells survive
RO-3306 + Bortezomib = compound: C1=CC2=C(C=CC(=C2)C=C3C(=O)NC(=NCC4=CC=CS4)S3)N=C1 [RO-3306] + CC(C)C[C@H](NC(=O)[C@H](Cc1ccccc1)NC(=O)c1cnccn1)B(O)O [Bortezomib] (partner 0.002 µM)
Outline: (§1)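 Nuclei were stained with Hoechst during a one-step fixation (final 0.05% Triton X-100, 1% formaldehyde, 1 ug/ml Hoechst) carried out 5 days after dosing, then counted on 4× images. The cells, lung cancer lines in 1536-well plates, had been dosed by pin tool the day after seeding with one drug alone or a fixed anchor-drug dose plus five library-drug doses (not always all listed) in √10 steps. Relative viability is the nuclei count in treated wells divided by that in vehicle wells, and each value is the median of duplicate plates.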

[1] = compound: O=S(=O)(c1ccccc1)N(CC(F)(F)F)c1ccc(C(O)(C(F)(F)F)C(F)(F)F)cc1 + CC(C)C[C@H](NC(=O)[C@H](Cc1ccccc1)NC(=O)c1cnccn1)B(O)O [Bortezomib] (partner 0.002 µM)
Outline: as §1

[2] = compound: O=S(=O)(c1ccccc1)N(CC(F)(F)F)c1ccc(C(O)(C(F)(F)F)C(F)(F)F)cc1 + CCNC(=O)c1noc(-c2cc(C(C)C)c(O)cc2O)c1-c1ccc(CN2CCOCC2)cc1 [Luminespib] (partner 0.01 µM)
Outline: as §1

[3] = compound: O=S(=O)(c1ccccc1)N(CC(F)(F)F)c1ccc(C(O)(C(F)(F)F)C(F)(F)F)cc1 + COc1cc2c(Oc3ccc(NC(=O)C4(C(=O)Nc5ccc(F)cc5)CC4)cc3F)ccnc2cc1OCCCN1CCOCC1 [Foretinib] (partner 0.25 µM)
Outline: as §1

[4] = compound: O=S(=O)(c1ccccc1)N(CC(F)(F)F)c1ccc(C(O)(C(F)(F)F)C(F)(F)F)cc1 + Cc1nc(Nc2ncc(C(=O)Nc3c(C)cccc3Cl)s2)cc(N2CCN(CCO)CC2)n1 [Dasatinib] (partner 0.075 µM)
Outline: as §1

Row | Cell Line | relative viability (RO-3306 + Bortezomib; first compound 0.01 µM) | relative viability (RO-3306 + Bortezomib; first compound 0.03162 µM) | relative viability (RO-3306 + Bortezomib; first compound 0.1 µM) | relative viability (RO-3306 + Bortezomib; first compound 0.3162 µM) | relative viability (RO-3306 + Bortezomib; first compound 1 µM) | relative viability ([1]; first compound 0.8 µM) | relative viability ([1]; first compound 2.53 µM) | relative viability ([1]; first compound 8 µM) | relative viability ([2]; first compound 0.8 µM) | relative viability ([2]; first compound 2.53 µM) | relative viability ([2]; first compound 8 µM) | relative viability ([3]; first compound 0.8 µM) | relative viability ([3]; first compound 2.53 µM) | relative viability ([3]; first compound 8 µM) | relative viability ([4]; first compound 0.8 µM) | relative viability ([4]; first compound 2.53 µM) | relative viability ([4]; first compound 8 µM)
1 | NCI-H441 | 0.771 | 0.4 | 0.647 | 0.449 | 0.31 | 0.737 | 0.479 | 0.597 | 0.317 | 0.37 | 0.372 | 0.916 | 0.927 | 0.952 | 0.868 | 0.501 | 0.577
2 | NCI-H460 | 1.37 | – | 1.1 | 1.34 | 0.776 | 1.29 | 1.03 | 1.02 | 0.034 | 0.0266 | 0.0324 | 1.14 | 0.889 | 0.778 | 0.654 | 0.459 | 0.574
3 | NCI-H520 | 0.802 | 0.369 | 0.5 | 0.582 | 0.435 | 0.962 | 0.785 | 0.626 | 0.218 | 0.242 | 0.237 | 0.923 | 0.686 | 0.699 | 0.235 | 0.211 | 0.26
4 | NCI-H596 | 0.939 | 0.917 | 1.18 | 0.812 | 0.962 | 0.997 | 0.791 | 0.843 | 1.13 | 0.69 | 0.923 | 0.876 | 0.711 | 0.887 | 0.594 | 0.566 | 0.52
5 | NCI-H647 | 1.13 | 0.889 | 1.04 | 0.931 | 0.751 | 1.27 | 1.03 | 0.967 | 0.275 | 0.19 | 0.233 | 1.48 | 1.19 | 1.03 | 0.142 | 0.162 | 0.208
6 | NCI-H650 | 0.662 | 0.635 | 0.703 | 0.764 | 0.694 | 0.832 | 0.776 | 0.823 | 1.01 | 0.854 | 0.853 | 1.18 | 1.05 | 1.07 | 0.368 | 0.425 | 0.479
7 | NCI-H661 | 0.817 | 0.738 | 0.84 | 0.829 | 0.935 | 0.885 | 0.883 | 0.642 | 0.89 | 0.866 | 0.821 | 1.03 | 0.961 | 0.844 | 1.03 | 0.886 | 0.832
8 | NCI-H727 | 0.878 | 0.733 | 0.84 | 0.817 | 0.948 | 1.23 | 0.762 | 0.737 | 0.389 | 0.292 | 0.358 | 0.83 | 0.846 | 0.867 | 0.408 | 0.302 | 0.325
9 | NCI-H838 | 0.825 | 0.523 | 0.661 | 0.808 | 0.685 | 0.907 | 0.863 | 0.906 | 0.24 | 0.257 | 0.299 | 1.15 | 1.05 | 1.02 | 0.273 | 0.303 | 0.325
10 | NCI-H1355 | 1.5 | 1.15 | 1.17 | 1.18 | 1.2 | 1.39 | 1.12 | 1.1 | 0.781 | 0.756 | 0.759 | 1.06 | 0.978 | 1.01 | 0.771 | 0.661 | 0.663
11 | NCI-H1437 | 0.57 | 0.346 | 0.529 | 0.582 | 0.484 | 0.485 | 0.423 | 0.588 | 1.12 | 0.903 | 0.831 | 1.35 | 1.09 | 0.979 | 0.327 | 0.297 | 0.287
12 | NCI-H1563 | 0.921 | 0.75 | 0.787 | 0.939 | 0.753 | 0.915 | 0.927 | 0.685 | 0.545 | 0.485 | 0.551 | 0.922 | 0.827 | 0.893 | 0.402 | 0.427 | 0.435
13 | NCI-H1650 | 0.204 | 0.184 | 0.181 | 0.192 | 0.185 | 0.203 | 0.187 | 0.194 | 0.184 | 0.2 | 0.231 | 1.33 | 0.904 | 1.28 | 0.343 | 0.316 | 0.389
14 | NCI-H1651 | 0.887 | 0.877 | 0.923 | 0.853 | 0.858 | 0.981 | 0.957 | 0.797 | 0.995 | 0.871 | 0.732 | 0.974 | 0.795 | 0.68 | 0.486 | 0.434 | 0.306
15 | NCI-H1666 | 0.848 | 0.734 | 0.713 | 0.765 | 0.598 | 0.948 | 0.696 | 0.685 | 0.831 | 0.84 | 0.889 | 0.936 | 0.863 | 0.863 | 0.765 | 0.68 | 0.683
16 | NCI-H1734 | 0.956 | 0.763 | 0.866 | 0.885 | 0.597 | 1.18 | 0.917 | 1.07 | 0.191 | 0.217 | 0.204 | 1.07 | 0.868 | 0.822 | 0.553 | 0.464 | 0.462
17 | NCI-H1755 | 1.13 | 0.983 | 0.976 | 0.936 | 0.978 | 1.07 | 0.933 | 1.03 | 0.505 | 0.418 | 0.458 | 0.891 | 0.79 | 0.951 | 0.373 | 0.368 | 0.429

— the supplement of paper PMC10307832
